Measurements as given in PMC10577695, “A Novel 7H-[1,2,4]Triazolo[3,4-b]thiadiazine-based Cystic Fibrosis Transmembrane Conductance Regulator Potentiator Directed toward Treatment of Cystic Fibrosis” (ACS Medicinal Chemistry Letters, 2023).
Each block holds one compound with its values, some of them ahead of it.

Tests used:
Test in all cases: CFTR current in FRT cells expressing G551D CFTR, […] compound with VX-770
Assay type in all cases: cell-based
[1] = biological target: T1, cystic fibrosis transmembrane conductance regulator (CFTR) (Homo sapiens, UniProt P13569, G551D)
T1 sequence (P13569 whole entry G551D): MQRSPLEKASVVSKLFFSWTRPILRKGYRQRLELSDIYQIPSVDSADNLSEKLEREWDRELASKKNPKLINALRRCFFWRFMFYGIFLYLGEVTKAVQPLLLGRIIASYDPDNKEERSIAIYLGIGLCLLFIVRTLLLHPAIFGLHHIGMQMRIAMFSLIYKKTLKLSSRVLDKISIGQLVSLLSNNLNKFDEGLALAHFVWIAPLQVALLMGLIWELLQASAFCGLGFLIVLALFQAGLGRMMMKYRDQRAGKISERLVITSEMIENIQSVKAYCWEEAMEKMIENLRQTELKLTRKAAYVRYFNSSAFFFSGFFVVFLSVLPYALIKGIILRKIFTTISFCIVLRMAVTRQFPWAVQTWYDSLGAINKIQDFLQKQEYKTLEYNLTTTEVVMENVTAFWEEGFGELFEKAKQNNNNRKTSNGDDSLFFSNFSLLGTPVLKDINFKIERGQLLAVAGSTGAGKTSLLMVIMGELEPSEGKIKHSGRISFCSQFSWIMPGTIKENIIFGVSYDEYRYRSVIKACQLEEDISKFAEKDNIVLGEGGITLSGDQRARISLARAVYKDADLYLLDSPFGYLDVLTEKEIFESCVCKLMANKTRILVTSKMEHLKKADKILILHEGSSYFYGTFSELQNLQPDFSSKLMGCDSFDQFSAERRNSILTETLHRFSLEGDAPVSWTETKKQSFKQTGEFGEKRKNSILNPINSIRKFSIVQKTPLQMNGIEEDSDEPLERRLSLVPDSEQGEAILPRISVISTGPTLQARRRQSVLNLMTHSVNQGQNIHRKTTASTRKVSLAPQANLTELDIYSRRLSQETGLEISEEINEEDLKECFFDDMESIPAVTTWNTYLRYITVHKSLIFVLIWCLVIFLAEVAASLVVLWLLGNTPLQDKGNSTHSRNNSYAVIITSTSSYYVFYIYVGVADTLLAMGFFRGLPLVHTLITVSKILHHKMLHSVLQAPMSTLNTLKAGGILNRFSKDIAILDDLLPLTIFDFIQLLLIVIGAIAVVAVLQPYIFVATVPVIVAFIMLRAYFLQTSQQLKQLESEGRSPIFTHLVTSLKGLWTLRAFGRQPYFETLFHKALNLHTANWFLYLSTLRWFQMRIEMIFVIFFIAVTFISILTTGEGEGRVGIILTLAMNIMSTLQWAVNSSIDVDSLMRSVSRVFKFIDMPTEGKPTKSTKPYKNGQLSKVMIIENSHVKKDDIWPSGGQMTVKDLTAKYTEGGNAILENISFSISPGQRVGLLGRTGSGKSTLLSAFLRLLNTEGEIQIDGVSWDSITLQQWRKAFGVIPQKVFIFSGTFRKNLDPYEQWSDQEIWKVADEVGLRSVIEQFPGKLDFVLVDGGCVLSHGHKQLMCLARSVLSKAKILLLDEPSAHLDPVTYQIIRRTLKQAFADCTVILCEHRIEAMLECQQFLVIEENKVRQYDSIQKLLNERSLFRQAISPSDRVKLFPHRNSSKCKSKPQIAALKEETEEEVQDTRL

[2] = biological target: T1, cystic fibrosis transmembrane conductance regulator (CFTR); remark: listed apart in the source
[3] = biological target: T1, cystic fibrosis transmembrane conductance regulator (CFTR); remark: listed apart in the source

% gain above VX-770 alone [1]: ~ 400 % gain above VX-770 alone
SMILES: CC(C)(C)C1=Nn2c(nnc2-c2ccc(Cl)cc2Cl)SC1 [8d]

SMILES: CC(C)C1=Nn2c(nnc2-c2cc(Cl)ccc2Br)SC1 [9c]
CFTR current in FRT cells expressing G551D CFTR, 10 μM compound with VX-770 [2]: 2-bromo-5-chloro series with 9c and 9d showing the highest levels of activity

SMILES: COc1ccc(Br)c(-c2nnc3n2N=C(C(C)C)CS3)c1 [10a]
% G551D CFTR stimulation compared to VX-770 alone [3]: 232 % G551D CFTR stimulation compared to VX-770 alone
